# Laboratory results taken from the NIST ThermoML archive (doi:10.1016/j.jct.2013.05.019).
# Numbers after ± are expanded uncertainties.
# Experiment: xn = mol fraction of the nth substance listed
# Conditions: 101 kPa, Liquid; for viscosity: Falling or rolling sphere viscometry; for mass density: Vibrating tube method; for electrical conductivity: Alternating current cell with electrodes
smiles,measurement,setting,value
CCCC[NH3+].O=[N+]([O-])[O-] [n-butylammonium nitrate] + O,viscosity,"293.15 K, x1 = 0.1",2.468 ± 0.053 mPa·s
same,viscosity,"293.15 K, x1 = 0.2001",4.454 ± 0.096 mPa·s
same,viscosity,"293.15 K, x1 = 0.3009",7.217 ± 0.16 mPa·s
same,viscosity,"293.15 K, x1 = 0.4004",11.69 ± 0.25 mPa·s
same,viscosity,"293.15 K, x1 = 0.5011",17.61 ± 0.38 mPa·s
same,viscosity,"293.15 K, x1 = 0.6505",31.21 ± 0.69 mPa·s
same,viscosity,"293.15 K, x1 = 0.7869",51.54 ± 1.1 mPa·s
same,viscosity,"293.15 K, x1 = 0.9022",78.32 ± 2 mPa·s
same,viscosity,"293.15 K, x1 = 1",111.35 ± 3.6 mPa·s
same,mass density,"293.15 K, x1 = 0.1",1059.97 ± 0.12 kg/m3
same,mass density,"293.15 K, x1 = 0.2001",1081.27 ± 0.13 kg/m3
same,mass density,"293.15 K, x1 = 0.3009",1090.62 ± 0.14 kg/m3
same,mass density,"293.15 K, x1 = 0.4004",1095.83 ± 0.15 kg/m3
same,mass density,"293.15 K, x1 = 0.5011",1099.15 ± 0.16 kg/m3
same,mass density,"293.15 K, x1 = 0.6505",1102.02 ± 0.2 kg/m3
same,mass density,"293.15 K, x1 = 0.7869",1103.62 ± 0.23 kg/m3
same,mass density,"293.15 K, x1 = 0.9022",1104.42 ± 0.27 kg/m3
same,mass density,"293.15 K, x1 = 1",1104.68 ± 0.31 kg/m3
same,electrical conductivity,"298.15 K, x1 = 0.001",0.583 ± 0.065 S/m
same,electrical conductivity,"298.15 K, x1 = 0.002",0.997 ± 0.059 S/m
same,electrical conductivity,"298.15 K, x1 = 0.004",1.55 ± 0.054 S/m
same,electrical conductivity,"298.15 K, x1 = 0.005",1.73 ± 0.052 S/m
same,electrical conductivity,"298.15 K, x1 = 0.006",1.89 ± 0.055 S/m
same,electrical conductivity,"298.15 K, x1 = 0.0081",2.18 ± 0.05 S/m
same,electrical conductivity,"298.15 K, x1 = 0.02",2.95 ± 0.06 S/m
same,electrical conductivity,"298.15 K, x1 = 0.03",3.19 ± 0.06 S/m
same,electrical conductivity,"298.15 K, x1 = 0.05",3.4 ± 0.07 S/m
same,electrical conductivity,"298.15 K, x1 = 0.0609",3.46 ± 0.07 S/m
same,electrical conductivity,"298.15 K, x1 = 0.1",3.42 ± 0.07 S/m
same,electrical conductivity,"298.15 K, x1 = 0.1999",3.31 ± 0.07 S/m
same,electrical conductivity,"298.15 K, x1 = 0.2997",2.95 ± 0.06 S/m
same,electrical conductivity,"298.15 K, x1 = 0.3999",2.52 ± 0.05 S/m
same,electrical conductivity,"298.15 K, x1 = 0.4998",2.08 ± 0.04 S/m
same,electrical conductivity,"298.15 K, x1 = 0.5986",1.77 ± 0.035 S/m
same,electrical conductivity,"298.15 K, x1 = 0.6979",1.45 ± 0.029 S/m
same,electrical conductivity,"298.15 K, x1 = 0.799",1.23 ± 0.025 S/m
same,electrical conductivity,"298.15 K, x1 = 0.9001",1.01 ± 0.02 S/m
same,electrical conductivity,"298.15 K, x1 = 1",0.867 ± 0.017 S/m
same,viscosity,"298.15 K, x1 = 0.1",2.221 ± 0.048 mPa·s
same,viscosity,"298.15 K, x1 = 0.2001",3.908 ± 0.084 mPa·s
same,viscosity,"298.15 K, x1 = 0.3009",6.297 ± 0.14 mPa·s
same,viscosity,"298.15 K, x1 = 0.4004",10.08 ± 0.22 mPa·s
same,viscosity,"298.15 K, x1 = 0.5011",15.1 ± 0.33 mPa·s
same,viscosity,"298.15 K, x1 = 0.6505",26.25 ± 0.57 mPa·s
same,viscosity,"298.15 K, x1 = 0.7869",42.46 ± 0.93 mPa·s
same,viscosity,"298.15 K, x1 = 0.9022",65.05 ± 1.5 mPa·s
same,viscosity,"298.15 K, x1 = 1",89.95 ± 2.5 mPa·s
same,mass density,"298.15 K, x1 = 0.1",1056.89 ± 0.12 kg/m3
same,mass density,"298.15 K, x1 = 0.2001",1078.05 ± 0.13 kg/m3
same,mass density,"298.15 K, x1 = 0.3009",1087.35 ± 0.14 kg/m3
same,mass density,"298.15 K, x1 = 0.4004",1092.56 ± 0.15 kg/m3
same,mass density,"298.15 K, x1 = 0.5011",1095.89 ± 0.16 kg/m3
same,mass density,"298.15 K, x1 = 0.6505",1098.8 ± 0.19 kg/m3
same,mass density,"298.15 K, x1 = 0.7869",1100.42 ± 0.23 kg/m3
same,mass density,"298.15 K, x1 = 0.9022",1101.25 ± 0.27 kg/m3
same,mass density,"298.15 K, x1 = 1",1101.52 ± 0.31 kg/m3
same,viscosity,"303.15 K, x1 = 0.1",1.963 ± 0.042 mPa·s
same,viscosity,"303.15 K, x1 = 0.2001",3.459 ± 0.074 mPa·s
same,viscosity,"303.15 K, x1 = 0.3009",5.545 ± 0.12 mPa·s
same,viscosity,"303.15 K, x1 = 0.4004",8.783 ± 0.19 mPa·s
same,viscosity,"303.15 K, x1 = 0.5011",13.08 ± 0.28 mPa·s
same,viscosity,"303.15 K, x1 = 0.6505",22.35 ± 0.49 mPa·s
same,viscosity,"303.15 K, x1 = 0.7869",35.45 ± 0.78 mPa·s
same,viscosity,"303.15 K, x1 = 0.9022",53.53 ± 1.1 mPa·s
same,viscosity,"303.15 K, x1 = 1",73.04 ± 1.8 mPa·s
same,mass density,"303.15 K, x1 = 0.1",1053.73 ± 0.12 kg/m3
same,mass density,"303.15 K, x1 = 0.2001",1074.8 ± 0.13 kg/m3
same,mass density,"303.15 K, x1 = 0.3009",1084.06 ± 0.13 kg/m3
same,mass density,"303.15 K, x1 = 0.4004",1089.29 ± 0.15 kg/m3
same,mass density,"303.15 K, x1 = 0.5011",1092.64 ± 0.16 kg/m3
same,mass density,"303.15 K, x1 = 0.6505",1095.58 ± 0.19 kg/m3
same,mass density,"303.15 K, x1 = 0.7869",1097.24 ± 0.23 kg/m3
same,mass density,"303.15 K, x1 = 0.9022",1098.1 ± 0.27 kg/m3
same,mass density,"303.15 K, x1 = 1",1098.38 ± 0.31 kg/m3
same,viscosity,"308.15 K, x1 = 0.1",1.754 ± 0.038 mPa·s
same,viscosity,"308.15 K, x1 = 0.2001",3.088 ± 0.066 mPa·s
same,viscosity,"308.15 K, x1 = 0.3009",4.924 ± 0.11 mPa·s
same,viscosity,"308.15 K, x1 = 0.4004",7.715 ± 0.17 mPa·s
same,viscosity,"308.15 K, x1 = 0.5011",11.42 ± 0.25 mPa·s
same,viscosity,"308.15 K, x1 = 0.6505",19.25 ± 0.42 mPa·s
same,viscosity,"308.15 K, x1 = 0.7869",29.98 ± 0.66 mPa·s
same,viscosity,"308.15 K, x1 = 0.9022",44.59 ± 0.98 mPa·s
same,viscosity,"308.15 K, x1 = 1",60.25 ± 1.3 mPa·s
same,mass density,"308.15 K, x1 = 0.1",1050.52 ± 0.12 kg/m3
same,mass density,"308.15 K, x1 = 0.2001",1071.53 ± 0.13 kg/m3
same,mass density,"308.15 K, x1 = 0.3009",1080.78 ± 0.13 kg/m3
same,mass density,"308.15 K, x1 = 0.4004",1086.02 ± 0.14 kg/m3
same,mass density,"308.15 K, x1 = 0.5011",1089.4 ± 0.16 kg/m3
same,mass density,"308.15 K, x1 = 0.6505",1092.38 ± 0.19 kg/m3
same,mass density,"308.15 K, x1 = 0.7869",1094.08 ± 0.23 kg/m3
same,mass density,"308.15 K, x1 = 0.9022",1094.97 ± 0.27 kg/m3
same,mass density,"308.15 K, x1 = 1",1095.26 ± 0.31 kg/m3
same,viscosity,"313.15 K, x1 = 0.1",1.579 ± 0.034 mPa·s
same,viscosity,"313.15 K, x1 = 0.2001",2.774 ± 0.059 mPa·s
same,viscosity,"313.15 K, x1 = 0.3009",4.401 ± 0.094 mPa·s
same,viscosity,"313.15 K, x1 = 0.4004",6.823 ± 0.15 mPa·s
same,viscosity,"313.15 K, x1 = 0.5011",10.04 ± 0.22 mPa·s
same,viscosity,"313.15 K, x1 = 0.6505",16.75 ± 0.36 mPa·s
same,viscosity,"313.15 K, x1 = 0.7869",25.8 ± 0.56 mPa·s
same,viscosity,"313.15 K, x1 = 0.9022",37.54 ± 0.82 mPa·s
same,viscosity,"313.15 K, x1 = 1",50.12 ± 1.1 mPa·s
same,mass density,"313.15 K, x1 = 0.1",1047.4 ± 0.12 kg/m3
same,mass density,"313.15 K, x1 = 0.2001",1068.24 ± 0.13 kg/m3
same,mass density,"313.15 K, x1 = 0.3009",1077.49 ± 0.13 kg/m3
same,mass density,"313.15 K, x1 = 0.4004",1082.76 ± 0.14 kg/m3
same,mass density,"313.15 K, x1 = 0.5011",1086.16 ± 0.16 kg/m3
same,mass density,"313.15 K, x1 = 0.6505",1089.2 ± 0.19 kg/m3
same,mass density,"313.15 K, x1 = 0.7869",1090.94 ± 0.22 kg/m3
same,mass density,"313.15 K, x1 = 0.9022",1091.86 ± 0.26 kg/m3
same,mass density,"313.15 K, x1 = 1",1092.17 ± 0.3 kg/m3
